How the values were obtained:
Assay in all cases: radiometric filter-binding kinase assay, Kinase HotSpot
Conditions in all cases: compound 0.5 µM; ATP 10 µM
ACVR1B (human) = ACVR1B (human) (UniProt P36896)
ADRBK2 (human) = ADRBK2 (human) (UniProt P35626)
AKT3 (human) = AKT3 (human) (UniProt Q9Y243)
BTK (human) = BTK (human) (UniProt Q06187)
CAMK2G (human) = CAMK2G (human) (UniProt Q13555)
CAMKK1 (human) = CAMKK1 (human) (UniProt Q8N5S9)
CDC42BPA (human) = CDC42BPA (human) (UniProt Q5VT25)
CDK1 CCNB1 (human) = CDK1 CCNB1 (human) (UniProt P06493+P14635)
CHEK2 (human) = CHEK2 (human) (UniProt O96017)
CSNK1G1 (human) = CSNK1G1 (human) (UniProt Q9HCP0)
CSNK1G1 (human), sequence (Q9HCP0 whole entry, looked up): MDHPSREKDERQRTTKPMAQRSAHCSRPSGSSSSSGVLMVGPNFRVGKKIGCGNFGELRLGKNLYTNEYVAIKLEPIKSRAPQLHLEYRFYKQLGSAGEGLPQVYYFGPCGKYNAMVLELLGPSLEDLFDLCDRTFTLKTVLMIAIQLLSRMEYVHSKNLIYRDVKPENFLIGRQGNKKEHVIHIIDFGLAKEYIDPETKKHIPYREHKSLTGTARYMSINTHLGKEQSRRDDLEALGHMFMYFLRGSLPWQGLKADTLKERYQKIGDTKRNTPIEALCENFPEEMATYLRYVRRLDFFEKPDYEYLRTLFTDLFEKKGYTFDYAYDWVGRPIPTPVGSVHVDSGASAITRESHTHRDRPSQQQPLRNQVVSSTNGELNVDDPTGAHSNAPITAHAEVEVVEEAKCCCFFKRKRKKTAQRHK

DAPK3 (human) = DAPK3 (human) (UniProt O43293)
DSTYK (human) = DSTYK (human) (UniProt Q6XUX3)
DYRK1B (human) = DYRK1B (human) (UniProt Q9Y463)
EPHA2 (human) = EPHA2 (human) (UniProt P29317)
EPHA5 (human) = EPHA5 (human) (UniProt P54756)
EPHA5 (human), sequence (P54756 whole entry, looked up): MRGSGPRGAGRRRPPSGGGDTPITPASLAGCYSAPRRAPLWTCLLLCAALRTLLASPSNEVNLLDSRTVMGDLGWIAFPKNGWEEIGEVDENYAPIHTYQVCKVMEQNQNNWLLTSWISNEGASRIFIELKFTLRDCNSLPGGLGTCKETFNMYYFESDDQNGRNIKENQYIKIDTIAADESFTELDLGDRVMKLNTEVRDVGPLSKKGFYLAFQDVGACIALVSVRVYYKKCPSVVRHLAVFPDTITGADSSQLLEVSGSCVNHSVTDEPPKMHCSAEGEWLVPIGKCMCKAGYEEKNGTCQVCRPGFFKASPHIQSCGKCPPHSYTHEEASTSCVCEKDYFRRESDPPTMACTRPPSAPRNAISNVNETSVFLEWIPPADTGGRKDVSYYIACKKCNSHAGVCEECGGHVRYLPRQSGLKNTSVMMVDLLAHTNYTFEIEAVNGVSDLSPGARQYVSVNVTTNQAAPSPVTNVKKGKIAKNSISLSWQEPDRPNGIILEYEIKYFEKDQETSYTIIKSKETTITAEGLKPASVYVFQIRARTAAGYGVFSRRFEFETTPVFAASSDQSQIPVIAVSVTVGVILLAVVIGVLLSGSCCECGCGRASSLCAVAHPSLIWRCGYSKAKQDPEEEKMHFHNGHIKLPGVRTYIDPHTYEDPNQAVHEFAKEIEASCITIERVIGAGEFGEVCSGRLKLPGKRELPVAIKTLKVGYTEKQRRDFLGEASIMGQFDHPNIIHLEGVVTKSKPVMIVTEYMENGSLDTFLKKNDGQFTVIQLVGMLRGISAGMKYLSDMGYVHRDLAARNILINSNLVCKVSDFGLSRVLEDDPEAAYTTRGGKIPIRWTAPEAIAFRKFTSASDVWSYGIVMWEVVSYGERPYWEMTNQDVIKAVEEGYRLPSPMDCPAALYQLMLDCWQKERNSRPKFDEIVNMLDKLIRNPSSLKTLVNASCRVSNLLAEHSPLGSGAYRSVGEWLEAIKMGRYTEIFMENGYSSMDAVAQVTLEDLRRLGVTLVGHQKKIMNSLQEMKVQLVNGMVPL

FGFR3 (human) = FGFR3 (human) (UniProt P22607)
FGFR3 (human), sequence (P22607 whole entry, looked up): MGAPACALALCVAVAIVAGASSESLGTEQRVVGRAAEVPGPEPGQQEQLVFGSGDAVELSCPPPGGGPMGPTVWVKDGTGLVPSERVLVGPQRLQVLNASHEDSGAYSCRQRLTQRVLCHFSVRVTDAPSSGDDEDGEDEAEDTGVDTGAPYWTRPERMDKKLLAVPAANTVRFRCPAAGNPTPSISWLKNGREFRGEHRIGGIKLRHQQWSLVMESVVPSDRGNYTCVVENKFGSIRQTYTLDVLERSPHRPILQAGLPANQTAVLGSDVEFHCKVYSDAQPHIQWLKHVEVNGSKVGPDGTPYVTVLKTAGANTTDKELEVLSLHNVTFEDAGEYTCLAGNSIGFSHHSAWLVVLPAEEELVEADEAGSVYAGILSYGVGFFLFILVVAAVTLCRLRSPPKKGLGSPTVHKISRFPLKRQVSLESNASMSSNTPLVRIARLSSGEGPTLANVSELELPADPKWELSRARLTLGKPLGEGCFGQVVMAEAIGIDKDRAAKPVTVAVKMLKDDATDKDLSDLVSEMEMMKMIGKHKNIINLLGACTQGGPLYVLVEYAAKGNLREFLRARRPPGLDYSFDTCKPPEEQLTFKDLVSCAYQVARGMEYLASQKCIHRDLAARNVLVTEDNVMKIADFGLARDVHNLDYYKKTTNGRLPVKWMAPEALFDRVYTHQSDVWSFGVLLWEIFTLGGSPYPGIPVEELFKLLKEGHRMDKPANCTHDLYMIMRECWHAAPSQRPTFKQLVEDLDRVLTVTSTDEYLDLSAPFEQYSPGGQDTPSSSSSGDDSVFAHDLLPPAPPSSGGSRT

HIPK3 (human) = HIPK3 (human) (UniProt Q9H422)
ITK (human) = ITK (human) (UniProt Q08881)
ITK (human), sequence (Q08881 whole entry, looked up): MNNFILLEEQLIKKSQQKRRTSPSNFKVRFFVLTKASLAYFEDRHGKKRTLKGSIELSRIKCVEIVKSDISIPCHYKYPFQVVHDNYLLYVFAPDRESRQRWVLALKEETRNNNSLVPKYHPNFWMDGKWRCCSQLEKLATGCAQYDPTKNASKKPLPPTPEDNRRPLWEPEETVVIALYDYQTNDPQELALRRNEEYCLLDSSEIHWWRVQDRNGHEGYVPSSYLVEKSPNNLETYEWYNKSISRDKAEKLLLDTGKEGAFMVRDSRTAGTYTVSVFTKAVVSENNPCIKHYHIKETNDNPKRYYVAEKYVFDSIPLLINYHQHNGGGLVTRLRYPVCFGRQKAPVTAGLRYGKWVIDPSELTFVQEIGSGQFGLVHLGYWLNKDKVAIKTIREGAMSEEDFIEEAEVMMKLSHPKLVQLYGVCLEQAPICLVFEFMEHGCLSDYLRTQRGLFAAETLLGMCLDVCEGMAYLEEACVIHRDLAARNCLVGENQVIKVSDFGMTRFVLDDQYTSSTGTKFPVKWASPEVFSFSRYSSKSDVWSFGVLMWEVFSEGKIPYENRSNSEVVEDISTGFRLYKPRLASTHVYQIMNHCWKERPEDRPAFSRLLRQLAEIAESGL

MAP3K14 (human) = MAP3K14 (human) (UniProt Q99558)
MAP3K2 (human) = MAP3K2 (human) (UniProt Q9Y2U5)
MAP3K5 (human) = MAP3K5 (human) (UniProt Q99683)
MAP3K7 TAB1 (human) = MAP3K7 TAB1 (human) (UniProt O43318+Q15750)
MAP4K4 (human) = MAP4K4 (human) (UniProt O95819)
MAPK10 (human) = MAPK10 (human) (UniProt P53779)
MAPK11 (human) = MAPK11 (human) (UniProt Q15759)
MET (human) = MET (human) (UniProt P08581)
NTRK1 (human) = NTRK1 (human) (UniProt P04629)
PAK3 (human) = PAK3 (human) (UniProt O75914)
PIM1 (human) = PIM1 (human) (UniProt P11309)
PIM1 (human), sequence (P11309 whole entry, looked up): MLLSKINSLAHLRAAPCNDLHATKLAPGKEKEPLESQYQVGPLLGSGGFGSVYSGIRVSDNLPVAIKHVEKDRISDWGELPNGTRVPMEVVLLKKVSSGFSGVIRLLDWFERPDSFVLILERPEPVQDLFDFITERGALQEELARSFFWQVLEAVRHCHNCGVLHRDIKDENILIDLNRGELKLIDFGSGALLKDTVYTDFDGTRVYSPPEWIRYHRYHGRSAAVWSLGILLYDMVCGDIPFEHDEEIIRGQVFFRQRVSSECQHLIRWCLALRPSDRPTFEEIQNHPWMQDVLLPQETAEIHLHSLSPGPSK

PIM2 (human) = PIM2 (human) (UniProt Q9P1W9)
PRKCB1 (human) = PRKCB1 (human) (UniProt P05771)
PRKCD (human) = PRKCD (human) (UniProt Q05655)
PRKD3 (human) = PRKD3 (human) (UniProt O94806)
PTK2B (human) = PTK2B (human) (UniProt Q14289)
RPS6KA3 KD1 KD2 (human) = RPS6KA3 KD1 KD2 (human) (UniProt P51812)
RPS6KA4 KD2 (human) = RPS6KA4 KD2 (human) (UniProt O75676)
RPS6KB1 (human) = RPS6KB1 (human) (UniProt P23443)
STK25 (human) = STK25 (human) (UniProt O00506)
TNK2 (human) = TNK2 (human) (UniProt Q07912)
TXK (human) = TXK (human) (UniProt P42681)
VRK1 (human) = VRK1 (human) (UniProt Q99986)
YES1 (human) = YES1 (human) (UniProt P07947)

CDC42BPA (human), sequence (Q5VT25 whole entry, looked up): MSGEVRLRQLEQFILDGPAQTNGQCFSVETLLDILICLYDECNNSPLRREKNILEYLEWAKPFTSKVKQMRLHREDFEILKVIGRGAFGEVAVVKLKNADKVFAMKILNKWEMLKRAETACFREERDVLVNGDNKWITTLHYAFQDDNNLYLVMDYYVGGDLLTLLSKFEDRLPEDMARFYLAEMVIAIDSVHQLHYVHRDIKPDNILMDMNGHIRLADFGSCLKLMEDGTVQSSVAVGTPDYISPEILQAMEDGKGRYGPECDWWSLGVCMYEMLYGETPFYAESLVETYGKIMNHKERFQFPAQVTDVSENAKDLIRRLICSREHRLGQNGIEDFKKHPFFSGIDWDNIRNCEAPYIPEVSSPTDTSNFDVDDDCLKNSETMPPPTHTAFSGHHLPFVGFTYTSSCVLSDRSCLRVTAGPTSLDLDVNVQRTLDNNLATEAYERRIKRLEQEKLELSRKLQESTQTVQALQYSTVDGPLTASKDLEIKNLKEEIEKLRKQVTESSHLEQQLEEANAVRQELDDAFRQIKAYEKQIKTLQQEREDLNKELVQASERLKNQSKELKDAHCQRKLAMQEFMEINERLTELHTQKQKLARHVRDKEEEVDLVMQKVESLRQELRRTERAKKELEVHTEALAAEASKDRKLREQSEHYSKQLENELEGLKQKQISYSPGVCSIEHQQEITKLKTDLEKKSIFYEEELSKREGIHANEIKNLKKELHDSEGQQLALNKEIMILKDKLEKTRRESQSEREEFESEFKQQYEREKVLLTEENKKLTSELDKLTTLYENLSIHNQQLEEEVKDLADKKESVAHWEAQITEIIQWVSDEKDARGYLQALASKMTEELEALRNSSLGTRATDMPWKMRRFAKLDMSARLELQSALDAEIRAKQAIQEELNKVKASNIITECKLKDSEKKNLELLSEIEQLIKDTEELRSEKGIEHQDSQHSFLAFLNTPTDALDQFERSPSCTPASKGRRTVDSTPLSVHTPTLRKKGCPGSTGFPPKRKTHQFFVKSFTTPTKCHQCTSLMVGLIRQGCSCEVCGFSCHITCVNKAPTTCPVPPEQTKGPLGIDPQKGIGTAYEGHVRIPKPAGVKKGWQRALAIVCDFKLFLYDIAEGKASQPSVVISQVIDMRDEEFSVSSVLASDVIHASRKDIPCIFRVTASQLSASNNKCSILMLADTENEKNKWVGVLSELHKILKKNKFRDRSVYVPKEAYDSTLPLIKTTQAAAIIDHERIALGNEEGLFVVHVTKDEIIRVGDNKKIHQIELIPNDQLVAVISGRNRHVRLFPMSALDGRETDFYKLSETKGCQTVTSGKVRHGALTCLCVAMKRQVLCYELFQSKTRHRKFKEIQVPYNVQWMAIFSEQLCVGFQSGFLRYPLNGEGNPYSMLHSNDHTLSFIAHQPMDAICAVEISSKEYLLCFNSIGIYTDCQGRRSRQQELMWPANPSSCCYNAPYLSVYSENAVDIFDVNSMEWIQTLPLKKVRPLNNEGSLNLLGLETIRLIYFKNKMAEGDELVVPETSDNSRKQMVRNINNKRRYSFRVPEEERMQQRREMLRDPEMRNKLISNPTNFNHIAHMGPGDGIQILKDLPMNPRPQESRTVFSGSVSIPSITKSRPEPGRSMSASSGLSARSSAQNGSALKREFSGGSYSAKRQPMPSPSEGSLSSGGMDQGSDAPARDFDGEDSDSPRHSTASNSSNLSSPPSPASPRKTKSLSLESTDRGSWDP

O=c1cc(N2CCNCC2)oc2c(-c3ccccc3)cccc12
residual activity (ACVR1B (human)): 105%
residual activity (ADRBK2 (human)): 97.4%
residual activity (AKT3 (human)): 102%
residual activity (BTK (human)): 85.7%
residual activity (CAMK2G (human)): 102%
residual activity (CAMKK1 (human)): 105%
residual activity (CDC42BPA (human)): 107%
residual activity (CDK1 CCNB1 (human)): 106%
residual activity (CHEK2 (human)): 96.6%
residual activity (CSNK1G1 (human)): 103%
residual activity (DAPK3 (human)): 133%
residual activity (DSTYK (human)): 92.8%
residual activity (DYRK1B (human)): 99.2%
residual activity (EPHA2 (human)): 108%
residual activity (EPHA5 (human)): 109%
residual activity (FGFR3 (human)): 96.3%
residual activity (HIPK3 (human)): 116%
residual activity (ITK (human)): 88.1%
residual activity (MAP3K14 (human)): 110%
residual activity (MAP3K2 (human)): 105%
residual activity (MAP3K5 (human)): 106%
residual activity (MAP3K7 TAB1 (human)): 94.2%
residual activity (MAP4K4 (human)): 92.7%
residual activity (MAPK10 (human)): 85%
residual activity (MAPK11 (human)): 105%
residual activity (MET (human)): 107%
residual activity (NTRK1 (human)): 96.4%
residual activity (PAK3 (human)): 99.8%
residual activity (PIM1 (human)): 92.4%
residual activity (PIM2 (human)): 121%
residual activity (PRKCB1 (human)): 91.6%
residual activity (PRKCD (human)): 99.6%
residual activity (PRKD3 (human)): 88.6%
residual activity (PTK2B (human)): 88.3%
residual activity (RPS6KA3 KD1 KD2 (human)): 101%
residual activity (RPS6KA4 KD2 (human)): 117%
residual activity (RPS6KB1 (human)): 102%
residual activity (STK25 (human)): 116%
residual activity (TNK2 (human)): 90.7%
residual activity (TXK (human)): 95.4%
residual activity (VRK1 (human)): 92.1%
residual activity (YES1 (human)): 96.4%

Oc1ccc(-c2nc(-c3ccc(F)cc3)c(-c3ccncc3)[nH]2)cc1
residual activity (ACVR1B (human)): 136%
residual activity (ADRBK2 (human)): 99.3%
residual activity (AKT3 (human)): 98.4%
residual activity (BTK (human)): 101%
residual activity (CAMK2G (human)): 101%
residual activity (CAMKK1 (human)): 123%
residual activity (CDC42BPA (human)): 94%
residual activity (CDK1 CCNB1 (human)): 99%
residual activity (CHEK2 (human)): 98.9%
residual activity (CSNK1G1 (human)): 97.3%
residual activity (DAPK3 (human)): 100%
residual activity (DSTYK (human)): 100%
residual activity (DYRK1B (human)): 105%
residual activity (EPHA2 (human)): 91.3%
residual activity (EPHA5 (human)): 90.7%
residual activity (FGFR3 (human)): 99.2%
residual activity (HIPK3 (human)): 98.3%
residual activity (ITK (human)): 90.9%
residual activity (MAP3K14 (human)): 115%
residual activity (MAP3K2 (human)): 95%
residual activity (MAP3K5 (human)): 105%
residual activity (MAP3K7 TAB1 (human)): 97.7%
residual activity (MAP4K4 (human)): 86.5%
residual activity (MAPK10 (human)): 117%
residual activity (MAPK11 (human)): 32.8%
residual activity (MET (human)): 94.4%
residual activity (NTRK1 (human)): 105%
residual activity (PAK3 (human)): 98.7%
residual activity (PIM1 (human)): 106%
residual activity (PIM2 (human)): 106%
residual activity (PRKCB1 (human)): 63.7%
residual activity (PRKCD (human)): 99.3%
residual activity (PRKD3 (human)): 69.8%
residual activity (PTK2B (human)): 96.2%
residual activity (RPS6KA3 KD1 KD2 (human)): 96.1%
residual activity (RPS6KA4 KD2 (human)): 95.9%
residual activity (RPS6KB1 (human)): 87.8%
residual activity (STK25 (human)): 115%
residual activity (TNK2 (human)): 83.2%
residual activity (TXK (human)): 78.5%
residual activity (VRK1 (human)): 98.7%
residual activity (YES1 (human)): 84.7%

CCN1/C(=C/C(C)=O)Sc2ccc(OC)cc21
residual activity (ACVR1B (human)): 109%
residual activity (ADRBK2 (human)): 82.9%
residual activity (AKT3 (human)): 96.1%
residual activity (BTK (human)): 101%
residual activity (CAMK2G (human)): 90.4%
residual activity (CAMKK1 (human)): 105%
residual activity (CDC42BPA (human)): 85%
residual activity (CDK1 CCNB1 (human)): 93.2%
residual activity (CHEK2 (human)): 104%
residual activity (CSNK1G1 (human)): 87.8%
residual activity (DAPK3 (human)): 98.7%
residual activity (DSTYK (human)): 90.6%
residual activity (DYRK1B (human)): 32.9%
residual activity (EPHA2 (human)): 99.1%
residual activity (EPHA5 (human)): 97.8%
residual activity (FGFR3 (human)): 99.1%
residual activity (HIPK3 (human)): 100%
residual activity (ITK (human)): 102%
residual activity (MAP3K14 (human)): 86.1%
residual activity (MAP3K2 (human)): 101%
residual activity (MAP3K5 (human)): 118%
residual activity (MAP3K7 TAB1 (human)): 99.9%
residual activity (MAP4K4 (human)): 83.2%
residual activity (MAPK10 (human)): 102%
residual activity (MAPK11 (human)): 84.5%
residual activity (MET (human)): 103%
residual activity (NTRK1 (human)): 85.7%
residual activity (PAK3 (human)): 96.3%
residual activity (PIM1 (human)): 17.9%
residual activity (PIM2 (human)): 102%
residual activity (PRKCB1 (human)): 99.4%
residual activity (PRKCD (human)): 88.2%
residual activity (PRKD3 (human)): 62.5%
residual activity (PTK2B (human)): 97.8%
residual activity (RPS6KA3 KD1 KD2 (human)): 102%
residual activity (RPS6KA4 KD2 (human)): 91.8%
residual activity (RPS6KB1 (human)): 95%
residual activity (STK25 (human)): 98%
residual activity (TNK2 (human)): 102%
residual activity (TXK (human)): 100%
residual activity (VRK1 (human)): 98.2%
residual activity (YES1 (human)): 91.8%

From the kinase profiling compilation of Christmann-Franck et al. (2016)
